EP1247803A2, “Indolinone compounds suitable for modulation of protein kinases” (Sugen, Inc., priority 1996, dated 1998)

Assays:
FLK-1 receptor = target: T1, FLK-1 receptor (Mus musculus, UniProt P35918); experiment: FLK-1 ELISA (kinase activity of the FLK-1 receptor in FLK-1/NIH3T3 cells, VEGF stimulated); type: cell-based
T1 construct: expressed in transfected cells; host or cells: NIH3T3 C7#3
How it was run: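 An ELISA using affinity-purified rabbit anti-FLK-1 antiserum on anti-rabbit IgG-coated plates measured VEGF-stimulated FLK-1 kinase activity. NIH3T3 C7#3 cells carrying FLK-1 were serum-starved (0.1% FBS) overnight, then exposed to compound (final 1:200 dilution, 0.5% DMSO) for two hours at 37 °C.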

MET = MET biochemical kinase assay; design: species or system human; concentration or dose not given beside the values
How it was run: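 Immunocaptured MET autophosphorylation, read colorimetrically (TMB) via HRP anti-phosphotyrosine antibody. Kinase reaction initiated with buffer containing ATP and divalent metals after compound addition to plate-bound receptor from lysates.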

T1 sequence (P35918 20-1345): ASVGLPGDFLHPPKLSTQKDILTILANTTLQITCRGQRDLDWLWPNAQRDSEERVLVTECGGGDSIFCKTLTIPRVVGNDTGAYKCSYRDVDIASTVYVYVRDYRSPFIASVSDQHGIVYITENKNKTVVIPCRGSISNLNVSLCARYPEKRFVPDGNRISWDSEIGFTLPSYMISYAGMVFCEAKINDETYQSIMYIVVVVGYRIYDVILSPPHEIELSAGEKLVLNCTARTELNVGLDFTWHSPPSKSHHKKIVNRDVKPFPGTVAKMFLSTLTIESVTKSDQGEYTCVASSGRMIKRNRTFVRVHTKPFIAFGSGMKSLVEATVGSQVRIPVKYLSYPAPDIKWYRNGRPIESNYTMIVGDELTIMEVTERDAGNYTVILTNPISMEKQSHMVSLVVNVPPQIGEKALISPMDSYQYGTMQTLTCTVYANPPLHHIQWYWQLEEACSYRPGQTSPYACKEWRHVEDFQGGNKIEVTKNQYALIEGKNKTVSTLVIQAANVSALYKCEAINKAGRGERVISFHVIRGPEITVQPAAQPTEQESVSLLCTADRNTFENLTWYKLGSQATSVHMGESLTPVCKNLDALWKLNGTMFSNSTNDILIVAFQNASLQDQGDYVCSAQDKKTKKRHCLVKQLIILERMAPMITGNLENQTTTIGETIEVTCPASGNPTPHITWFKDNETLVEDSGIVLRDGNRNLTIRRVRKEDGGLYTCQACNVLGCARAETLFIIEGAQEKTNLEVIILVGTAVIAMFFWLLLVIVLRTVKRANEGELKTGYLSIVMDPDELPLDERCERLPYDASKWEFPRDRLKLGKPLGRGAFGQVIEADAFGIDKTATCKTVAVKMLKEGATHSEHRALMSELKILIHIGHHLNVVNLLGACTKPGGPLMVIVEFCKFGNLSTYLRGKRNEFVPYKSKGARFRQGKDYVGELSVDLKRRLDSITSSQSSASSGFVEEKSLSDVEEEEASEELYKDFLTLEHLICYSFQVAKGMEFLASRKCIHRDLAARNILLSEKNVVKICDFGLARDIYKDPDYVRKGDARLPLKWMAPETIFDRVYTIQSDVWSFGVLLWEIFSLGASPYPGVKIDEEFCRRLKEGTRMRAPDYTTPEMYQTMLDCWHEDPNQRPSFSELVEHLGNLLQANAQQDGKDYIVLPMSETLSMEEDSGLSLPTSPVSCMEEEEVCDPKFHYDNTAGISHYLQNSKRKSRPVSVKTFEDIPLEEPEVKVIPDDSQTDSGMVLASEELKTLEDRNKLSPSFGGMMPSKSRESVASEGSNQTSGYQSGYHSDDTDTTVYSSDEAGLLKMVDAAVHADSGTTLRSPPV

SMILES	Fik Kinase %Inhibition (FLK-1 receptor) [%]	Met Kinase % Inhibition (MET) [%]
O=C1Nc2ccc(CCCl)cc2C1=Cc1ncc[nH]1 [10720/G11]	-18.0	36.2
Cn1c(C=C2C(=O)Nc3c(Br)cc(Br)cc32)nc2ccccc21 [10721/A02]	10.6	41.1
Cn1cc(Cl)c(C=C2C(=O)Nc3c(Br)cc(Br)cc32)n1 [10721/A03]	11.4	56.2
Cc1cc(C=C2C(=O)Nc3c(Br)cc(Br)cc32)sc1C [10721/A04]	6.5	85.0
O=C1Nc2c(Br)cc(Br)cc2C1=Cc1cc2c([nH]1)CCCC2 [10721/A05]	12.5	52.9
O=C1Nc2c(Br)cc(Br)cc2C1=Cc1cc([N+](=O)[O-])cc(CCl)c1O [10721/A06]	6.4	81.3
O=C1Nc2c(Br)cc(Br)cc2C1=Cc1ccc(Cl)s1 [10721/A07]	-4.7	29.7
Cc1cc(C)c(C=C2C(=O)Nc3c(Br)cc(Br)cc32)[nH]1 [10721/A08]	4.8	29.9
CC(C)(C)c1cc(C=C2C(=O)Nc3c(Br)cc(Br)cc32)ccc1O [10721/A09]	10.9	23.0
CC(C)(C)c1cc(C=C2C(=O)Nc3c(Br)cc(Br)cc32)cc(Br)c1O [10721/A10]	5.2	68.9
CC(C)(C)c1cc(C=C2C(=O)Nc3c(Br)cc(Br)cc32)cc(C(C)(C)C)c1O [10721/A11]	4.8	23.9
O=C1Nc2ccc(I)cc2C1=Cc1cc2c([nH]1)CCCC2 [10721/B05]	45.9	70.8
Cc1cc(C)c(C=C2C(=O)Nc3ccc(I)cc32)[nH]1 [10721/B08]	18.5	64.5
CC(C)(C)c1cc(C=C2C(=O)Nc3ccc(I)cc32)ccc1O [10721/B09]	9.0	28.3
CC(C)(C)c1cc(C=C2C(=O)Nc3ccc(I)cc32)cc(Br)c1O [10721/B10]	20.9	30.4
CC(C)(C)c1cc(C=C2C(=O)Nc3ccc(I)cc32)cc(C(C)(C)C)c1O [10721/B11]	-2.1	6.7
Cc1c(Br)ccc2c1C(=Cc1nc3ccccc3n1C)C(=O)N2 [10721/C02]	9.7	59.2

SMILES	Fik Kinase %Inhibition (FLK-1 receptor) [%]	Met Kinase % Inhibition (MET) [%]
Cc1c(Br)ccc2c1C(=Cc1nn(C)cc1Cl)C(=O)N2 [10721/C03]	16.5	6.2
Cc1cc(C=C2C(=O)Nc3ccc(Br)c(C)c32)sc1C [10721/C04]	21.8	88.7
Cc1c(Br)ccc2c1C(=Cc1cc3c([nH]1)CCCC3)C(=O)N2 [10721/C05]	56.4	48.7
Cc1c(Br)ccc2c1C(=Cc1cc([N+](=O)[O-])cc(CCl)c1O)C(=O)N2 [10721/C06]	14.4	56.4
Cc1c(Br)ccc2c1C(=Cc1ccc(Cl)s1)C(=O)N2 [10721/C07]	10.9	25.7
Cc1cc(C)c(C=C2C(=O)Nc3ccc(Br)c(C)c32)[nH]1 [10721/C08]	55.8	24.8
Cc1c(Br)ccc2c1C(=Cc1ccc(O)c(C(C)(C)C)c1)C(=O)N2 [10721/C09]	17.5	-4.7
Cc1c(Br)ccc2c1C(=Cc1cc(Br)c(O)c(C(C)(C)C)c1)C(=O)N2 [10721/C10]	21.1	44.6
Cc1c(Br)ccc2c1C(=Cc1cc(C(C)(C)C)c(O)c(C(C)(C)C)c1)C(=O)N2 [10721/C11]	13.9	3.7
CNS(=O)(=O)c1ccc2c(c1)C(=Cc1nc3ccccc3n1C)C(=O)N2 [10721/D02]	15.1	22.5
CNS(=O)(=O)c1ccc2c(c1)C(=Cc1nn(C)cc1Cl)C(=O)N2 [10721/D03]	17.8	19.5
CNS(=O)(=O)c1ccc2c(c1)C(=Cc1cc(C)c(C)s1)C(=O)N2 [10721/D04]	15.2	35.3
CNS(=O)(=O)c1ccc2c(c1)C(=Cc1cc3c([nH]1)CCCC3)C(=O)N2 [10721/D05]	-25.1	91.9
CNS(=O)(=O)c1ccc2c(c1)C(=Cc1cc([N+](=O)[O-])cc(CCl)c1O)C(=O)N2 [10721/D06]	1.6	9.0
CNS(=O)(=O)c1ccc2c(c1)C(=Cc1ccc(Cl)s1)C(=O)N2 [10721/D07]	6.4	-6.8
CNS(=O)(=O)c1ccc2c(c1)C(=Cc1[nH]c(C)cc1C)C(=O)N2 [10721/D08]	3.9	45.3
CNS(=O)(=O)c1ccc2c(c1)C(=Cc1ccc(O)c(C(C)(C)C)c1)C(=O)N2 [10721/D09]	17.6	-4.9
